Experiment [1] has as its target Cbl-b (Homo sapiens (Human), UniProt Q13191). In words: Cbl-b LCK Ub TR-FRET assay (Cbl-b Lck HTRF). Format: biochemical. Summed up: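 TR-FRET (340 nm excitation, 615/665 nm emission) read after adding HA-ubiquitin–UBE2D2 thioester, anti-HA-D2 and streptavidin-Eu. Beforehand, compounds incubated 60 min with biotinylated Cbl-b, then 90 min with His-LCK and ATP (1 mM in 2× mix); IC50 from 10 concentrations, DMSO high and no-LCK low controls.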
(Time-resolved FRET reads energy transfer from a long-lived donor to a nearby acceptor.)

The target of experiment [2] is c-Cbl (Homo sapiens (Human), UniProt P22681). In words: C-Cbl LCK Ub TR-FRET assay (c-cbl Lck HTRF). Particulars: for (fold-selectivity): C-cbl Lck HTRF IC50 relative to Cbl-b Lck HTRF IC50. Format: biochemical. Summed up:
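After the ubiquitination reaction, detection mixture was added and plates incubated 20 min at room temperature before reading. IC50 values were calculated with wells lacking LCK as the low control and DMSO as the high control.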

Structures can show the parent of a compound that is named as a salt.

Cbl-b, sequence (Q13191 40-426): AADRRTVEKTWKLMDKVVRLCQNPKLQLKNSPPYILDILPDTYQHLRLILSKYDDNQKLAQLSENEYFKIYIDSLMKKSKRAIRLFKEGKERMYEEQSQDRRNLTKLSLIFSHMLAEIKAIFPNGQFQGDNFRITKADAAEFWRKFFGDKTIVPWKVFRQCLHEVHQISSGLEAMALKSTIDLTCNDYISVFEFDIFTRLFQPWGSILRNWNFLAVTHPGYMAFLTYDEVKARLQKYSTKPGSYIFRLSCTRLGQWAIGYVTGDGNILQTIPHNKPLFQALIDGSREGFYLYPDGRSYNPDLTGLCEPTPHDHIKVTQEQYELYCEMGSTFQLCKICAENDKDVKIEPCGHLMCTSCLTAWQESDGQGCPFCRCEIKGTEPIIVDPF
c-Cbl, sequence (P22681 47-435): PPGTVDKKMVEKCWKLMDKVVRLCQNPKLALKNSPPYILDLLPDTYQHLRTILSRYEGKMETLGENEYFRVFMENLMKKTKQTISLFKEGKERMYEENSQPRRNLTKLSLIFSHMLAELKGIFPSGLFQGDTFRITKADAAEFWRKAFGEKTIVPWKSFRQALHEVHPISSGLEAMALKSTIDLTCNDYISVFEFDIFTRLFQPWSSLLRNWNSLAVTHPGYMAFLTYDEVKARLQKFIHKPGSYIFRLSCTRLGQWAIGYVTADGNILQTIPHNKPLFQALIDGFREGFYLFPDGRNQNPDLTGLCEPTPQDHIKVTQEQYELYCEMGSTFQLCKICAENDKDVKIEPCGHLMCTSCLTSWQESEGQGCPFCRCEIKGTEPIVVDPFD

Broadly, the IC50 is the midpoint of a concentration-inhibition curve. A higher IC50 goes with lower potency. In turn, `CC[C@H]1CN(C)CCN1Cc1cc2c(c(C(F)(F)F)c1)CN(c1cccc(C3(Cc4nncn4C)CC(F)(F)C3)c1)C2=O` [Compound 434, (S)-2-(3-(3,3-difluoro-1-((4-methyl-4H-1,2,4-triazol-3-yl)methyl)cyclobutyl)phenyl)-6-((2-ethyl-4-methylpiperazin-1-yl)methyl)-4-(trifluoromethyl)isoindolin-1-one] yielded an IC50 in experiment [1] of 18 nM. In experiment [2], 17 nM corresponded to half-maximal inhibition (IC50) and the “(fold-selectivity)” value is on record as “(0.95x)”.
In turn, `COC1(C)CN(Cc2cc3c(c(C(F)(F)F)c2)CN(c2cccc(C4([C@H](F)c5nncn5C)COC4)c2)C3=O)C1` [Compound 180, (S)-2-(3-(3-(fluoro(4-methyl-4H-1,2,4-triazol-3-yl)methyl)oxetan-3-yl)phenyl)-6-((3-methoxy-3-methylazetidin-1-yl)methyl)-4-(trifluoromethyl)isoindolin-1-one] displayed an IC50 in experiment [1] of 220 nM. Further, in experiment [2], the IC50 was 430 nM and the “(fold-selectivity)” value stood at 1.9x.
As for `Cn1cnnc1[C@@H](F)C1(c2cccc(NC(=O)c3cc(CN4CC(C)(CO)C4)cc(C4CC4)n3)c2)CC(F)(F)C1` [Compound 423, (S)-6-cyclopropyl-N-(3-(3,3-difluoro-1-(fluoro(4-methyl-4H-1,2,4-triazol-3-yl)methyl)cyclobutyl)phenyl)-4-((3-(hydroxymethyl)-3-methylazetidin-1-yl)methyl)picolinamide], the IC50 in experiment [1] and in experiment [2] was 23 nM in each case. In addition, the “(fold-selectivity)” value in experiment [2] is given as “(1.0x)”.
Take `Cn1cnnc1[C@@H](F)C1(c2cccc(N3Cc4c(cc(CN5CC(C)(CO)C5)cc4C(F)(F)F)C3=O)c2)COC1` [Compound 75, (S)-2-(3-(3-(fluoro(4-methyl-4H-1,2,4-triazol-3-yl)methyl)oxetan-3-yl)phenyl)-6((3-(hydroxymethyl)-3-methylazetidin-1-yl)methyl)-4-(trifluoromethyl)isoindolin-1-one]: the IC50 in experiment [1] was 250 nM. Besides, in experiment [2], the midpoint of inhibition, the IC50, lay at 580 nM and the “(fold-selectivity)” value came out at 2.3x.
For `Cn1cnnc1CC1(c2cccc(N3Cc4c(cc(CNCC5(C)CC5)cc4C(F)(F)F)C3=O)c2)CC(F)(F)C1` [Compound 352, 2-(3-(3,3-difluoro-1-((4-methy-4H-1,2,4-triazol-3-yl)methyl)cyclobutyl)phenyl)-6-((((1-methylcyclopropyl)methyl)amino)methyl)-4-(trifluoromethyl)isoindolin-1-one formate], the IC50 came to 12 nM in experiment [1] and 6.7 nM in experiment [2].
In the case of `Cn1cnnc1[C@H](F)C1(c2cccc(N3Cc4c(cc(CN5CC(C)(CF)C5)cc4C(F)(F)F)C3=O)c2)COC1` [Compound 76, (R)-2-(3-(3-(fluoro(4-methyl-4H-1,2,4-triazol-3-yl)methyl)oxetan-3-yl)phenyl)-6-((3-(fluoromethyl)-3-methylazetidin-1-yl)methyl)-4-(trifluoromethyl)isoindolin-1-one], the IC50 in experiment [1] is 52 nM. Besides, in experiment [2], the IC50 was 82 nM and the “(fold-selectivity)” value was determined as 1.6x.
As to `CN(C)Cc1cccc(CNc2cc(C3(Cc4nncn4C)CCC3)cc(N3Cc4c(cc(CNC5(C)CCC5)cc4C(F)(F)F)C3=O)n2)c1` [Compound 318, 2-(6-((3-((dimethylamino)methyl)benzyl)amino)-4-(1-((4-methyl-4H-1,2,4-triazol-3-yl)methyl)cyclobutyl)pyridin-2-yl)-6-(((1-methylcyclobutyl)amino)methyl)-4-(trifluoromethyl)isoindolin-1-one], the IC50 in experiment [1] is 130 nM; in experiment [2] it was 140 nM. The “(fold-selectivity)” value in experiment [2] is given as “(1.1x)”.
On the same counts, the results for `CC(C)[C@H]1CN(C)CCN1Cc1cc2c(c(C(F)(F)F)c1)CN(c1cc(C3(Cc4nncn4C)CCC3)cc(NC(=O)CCl)n1)C2=O` [Compound 333, (S)-2-chloro-N-(6-(6-((2-isopropyl-4-methylpiperazin-1-yl)methyl)-1-oxo-4-(trifluoromethyl)isoindolin-2-yl)-4-(1-((4-methyl-4H-1,2,4-triazol-3-yl)methyl)cyclobutyl)pyridin-2-yl)acetamide] are 52 nM, 53 nM and “(1.0x)”.
As to `COCCOCCNc1cc(C2(Cc3nncn3C)CCC2)cc(N2Cc3c(cc(CNC4(C)CCC4)cc3C(F)(F)F)C2=O)n1` [Compound 336, 2-(6-((2-(2-methoxyethoxy)ethyl)amino)-4-(1-((4-methyl-4H-1,2,4-triazol-3-yl)methyl)cyclobutyl)pyridin-2-yl)-6-(((1-methylcyclobutyl)amino)methyl)-4-(trifluoromethyl)isoindolin-1-one], the IC50 was determined as 33 nM in experiment [1] and 23 nM in experiment [2]. Besides, in experiment [2], the “(fold-selectivity)” value is listed as “(0.70x)”.
For `CC(C)[C@H]1CN(S(C)(=O)=O)CCN1Cc1cc2c(c(C(F)(F)F)c1)CN(c1cccc(C3([C@H](F)c4nncn4C)COC3)c1)C2=O` [Compound 196, 2-(3-(3-((S)-fluoro(4-methyl-4H-1,2,4-triazol-3-yl)methyl)oxetan-3-yl)phenyl)-6-(((S)-2-isopropyl-4-(methylsulfonyl)piperazin-1-yl)methyl)-4-(trifluoromethyl)isoindolin-1-one], the IC50 in experiment [1] worked out at 240 nM; in experiment [2], 660 nM. For the same compound, the “(fold-selectivity)” value in experiment [2] was determined as 2.8x.
In experiment [1], `Cn1cnnc1[C@H](F)C1(c2cccc(N3Cc4c(cc(CN5CC(C)(O)C5)cc4C(F)(F)F)C3=O)c2)CC(F)(F)C1` [Compound 51, (R)-2-(3-(3,3-difluoro-1-(fluoro(4-methyl-4H-1,2,4-triazol-3-yl)methyl)cyclobutyl)-phenyl)-6-((3-hydroxy-3-methylazetidin-1-yl)methyl)-4-(trifluoromethyl)isoindolin-1-one] displayed an IC50 of 62 nM. In experiment [2], inhibition was half-maximal at 150 nM (IC50) and the “(fold-selectivity)” value was found to be 2.4x.
Compound `Cn1cnnc1[C@H](F)C1(c2cccc(N3Cc4c(cc(CNCC5CC5)cc4C(F)(F)F)C3=O)c2)CC(F)(F)C1` [Compound 449, (R)-6-(((cyclopropylmethyl)amino)methyl)-2-(3-(3,3-difluoro-1-(fluoro(4-methyl-4H-1,2,4-triazol-3-yl)methyl)cyclobutyl)phenyl)-4-(trifluoromethyl)isoindolin-1-one] returned an IC50 in experiment [1] of 20 nM. In experiment [2], inhibition was half-maximal at 21 nM (IC50) and the “(fold-selectivity)” value is listed as “(1.1x)”.
For `CC(C)[C@H]1CN(C)CCN1Cc1cc2c(c(C(F)(F)F)c1)CN(c1cc(C3([C@H](F)c4nncn4C)CCC3)cc(NCCO)n1)C2=O` [Compound 234, 2-(4-(1-((S)-fluoro(4-methyl-4H-1,2,4-triazol-3-yl)methyl)cyclobutyl)-6-((2-hydroxyethyl)amino)pyridin-2-yl)-6-(((S)-2-isopropyl-4-methylpiperazin-1-yl)methyl)-4-(trifluoromethyl)isoindolin-1-one], the 50% inhibitory concentration (IC50) turned out to be 7.2 nM in experiment [1] and 8.5 nM in experiment [2]. In addition, in experiment [2], the “(fold-selectivity)” value was “(1.2x)”.
In experiment [1], `Cn1cnnc1[C@@H](F)C1(c2cccc(N3Cc4c(cc(CN5CC(C)(CO)C5)cc4C(F)(F)F)C3=O)c2)CC1` [Compound 125, (S)-2-(3-(1-(fluoro(4-methyl-4H-1,2,4-triazol-3-yl)methyl)cyclopropyl)phenyl)-6((3-(hydroxymethyl)-3-methylazetidin-1-yl)methyl)-4-(trifluoromethyl)isoindolin-1-one] came in with an IC50 of 140 nM. Also, in experiment [2], the midpoint of inhibition, the IC50, lay at 240 nM and the “(fold-selectivity)” value is 1.7x.
Consider `CCNc1cc(N2Cc3c(cc(CNC4(C)CCC4)cc3C(F)(F)F)C2=O)cc(C2(Cc3nncn3C)COC2)c1` [Compound 474, 2-(3-(ethylamino)-5-(3-((4-methyl-4H-1,2,4-triazol-3-yl)methyl)oxetan-3-yl)phenyl)-6-(((1-methylcyclobutyl)amino)methyl)-4-(trifluoromethyl)isoindolin-1-one], for which inhibition in experiment [1] was half-maximal at 11 nM (IC50). In experiment [2], it took 8.6 nM to reach half-maximal inhibition (IC50) and the “(fold-selectivity)” value is on record as “(0.79x)”.
On to `Cn1cnnc1CC1(c2cccc(N3Cc4c(cc(CNCC5CCOC5)cc4C(F)(F)F)C3=O)c2)CC(F)(F)C1` (stereo not shown) [Compound 358, 2-(3-(3,3-difluoro-1-((4-methyl-4H-1,2,4-triazol-3-yl)methyl)cyclobutyl)phenyl)-6-((((tetrahydrofuran-3-yl)methyl)amino)methyl)-4-(trifluoromethyl)isoindolin-1-one formate], for which the IC50 turned out to be 16 nM in experiment [1] and 15 nM in experiment [2].
As to `CCn1cnnc1[C@@H](F)C1(c2cccc(N3Cc4c(cccc4C(F)(F)F)C3=O)c2)COC1` [Compound 271, (S)-2-(3-(3-((4-ethyl-4H-1,2,4-triazol-3-yl)fluoromethyl)oxetan-3-yl)phenyl)-4-(trifluoromethyl)isoindolin-1-one], half-maximal inhibition in experiment [1] (IC50) was put at 1600 nM. In addition, in experiment [2], the IC50 worked out at 1900 nM and the “(fold-selectivity)” value was “(1.2x)”.
Take `Cn1cnnc1CC1(c2cccc(N3Cc4c(cc(CN5CCN[C@H](C6CC6)C5)cc4C(F)(F)F)C3=O)c2)CC(F)(F)C1` [Compound 430, (R)-6-((3-cyclopropylpiperazin-1-yl)methyl)-2-(3-(3,3-difluoro-1-((4-methyl-4H-1,2,4-triazol-3-yl)methyl)cyclobutyl)phenyl)-4-(trifluoromethyl)isoindolin-1-one]: the IC50 in experiment [1] is 43 nM. In addition, in experiment [2], it took 35 nM to reach half-maximal inhibition (IC50) and the “(fold-selectivity)” value is given as “(0.80x)”.
Consider `Cn1cnnc1[C@@H](F)C1(c2cccc(N3Cc4c(cc(CN5CCOCC5)cc4C(F)(F)F)C3=O)c2)COC1` [Compound 89, (S)-2-(3-(3-(fluoro(4-methyl-4H-1,2,4-triazol-3-yl)methyl)oxetan-3-yl)phenyl)-6-(morpholinomethyl)-4-(trifluoromethyl)isoindolin-1-one], for which the IC50 in experiment [1] came out at 310 nM. In experiment [2], half-maximal inhibition (IC50) required 720 nM and the “(fold-selectivity)” value is 2.3x.
